Test results reported in ChEMBL document CHEMBL2029307, “Identification of aryl dihydrouracil derivatives as palm initiation site inhibitors of HCV NS5B polymerase” (Bioorg Med Chem Lett, 2012).
Each block holds one compound with its values, some of them ahead of it.

How the values were obtained:
Hepatitis C virus [1] = test: Inhibition of HCV genotype 1b patient isolate recombinant NS5B polymerase expressed in Escherichia coli DH5alpha assessed as inhibition of [3H]UTP incorporation after 2 hrs by scintillation counting; set-up: species or system Hepatitis C virus subtype 1b
[2] = Cytotoxicity against human HuH7 cells by MTT assay; format: cell-based, Huh-7; conditions: read-out: TD50 (the source's name)
[3] = Inhibition of HCV genotype 2b NS5B polymerase assessed as inhibition of [3H]UTP incorporation after 2 hrs by scintillation counting; set-up: species or system Hepatitis C virus subtype 2b
[4] = Inhibition of HCV genotype 3a NS5B polymerase assessed as inhibition of [3H]UTP incorporation after 2 hrs by scintillation counting; set-up: species or system Hepatitis C virus subtype 3a
[5] = Inhibition of HCV genotype 2a NS5B polymerase assessed as inhibition of [3H]UTP incorporation after 2 hrs by scintillation counting; set-up: species or system Hepatitis C virus subtype 2a
[6] = tested on: Hepatitis C virus subtype 1a; test: Resistance ratio of IC50 for HCV genotype 1a NS5B polymerase T448Y mutant to IC50 for HCV genotype 1a wildtype NS5B polymerase
[7] = tested on: Hepatitis C virus subtype 1a; test: Resistance ratio of IC50 for HCV genotype 1a NS5B polymerase P495A mutant to IC50 for HCV genotype 1a wildtype NS5B polymerase
[8] = Inhibition of HCV genotype 1b BK recombinant NS5B polymerase expressed in Escherichia coli DH5alpha assessed as inhibition of [3H]UTP incorporation after 2 hrs by scintillation counting; set-up: species or system Hepatitis C virus (isolate BK)
[9] = tested on: Hepatitis C virus subtype 1a; test: Resistance ratio of IC50 for HCV genotype 1a NS5B polymerase C316Y mutant to IC50 for HCV genotype 1a wildtype NS5B polymerase
[10] = tested on: Hepatitis C virus subtype 1a; test: Resistance ratio of IC50 for HCV genotype 1a NS5B polymerase M423T mutant to IC50 for HCV genotype 1a wildtype NS5B polymerase
[11] = tested on: Hepatitis C virus subtype 1a; test: Resistance ratio of IC50 for HCV genotype 1a NS5B polymerase M414T mutant to IC50 for HCV genotype 1a wildtype NS5B polymerase
[12] = Inhibition of HCV genotype 1a H77 recombinant NS5B polymerase expressed in Escherichia coli DH5alpha assessed as inhibition of [3H]UTP incorporation after 2 hrs by scintillation counting; set-up: species or system Hepatitis C virus (isolate H77)
Hepatitis C virus [13] = test: Antiviral activity against HCV genotype 1b infected in HuH7 cells by SEAP reporter gene assay; format: functional, organism-based, Hepacivirus hominis; conditions: Huh-7

SMILES: CC(C)(C)c1cc(N2CCC(=O)NC2=O)ccc1O
IC50 (Hepatitis C virus [1]): 7.6 µM

SMILES: CC(C)(C)c1cccc(N2CCC(=O)NC2=O)c1
IC50 (Hepatitis C virus [1]): 47 µM

SMILES: COc1c(Br)cc(N2CCC(=O)N(C)C2=O)cc1C(C)(C)C
IC50 (Hepatitis C virus [1]): > 200 µM

SMILES: COc1cc([N+](=O)[O-])c(N2CCC(=O)NC2=O)cc1C(C)(C)C
CC50 [2]: > 50 µM
IC50 [3]: > 200 µM
IC50 [4]: > 200 µM
IC50 [5]: > 200 µM
Ratio IC50 [6]: 41
Ratio IC50 [7]: 5
IC50 [8]: 0.36 µM
Ratio IC50 [9]: > 100
Ratio IC50 [10]: 5
IC50 (Hepatitis C virus [1]): 0.4 µM
Ratio IC50 [11]: 24
IC50 [12]: 0.58 µM
EC50 (Hepatitis C virus [13]): 0.84 µM

SMILES: O=C1CCN(c2cccc(C(F)(F)F)c2)C(=O)N1
IC50 (Hepatitis C virus [1]): > 200 µM

Next, values leading:

IC50 (Hepatitis C virus [1]): 1.7 µM
SMILES: COc1cc(N)c(N2CCC(=O)NC2=O)cc1C(C)(C)C

IC50 (Hepatitis C virus [1]): 6.7 µM
SMILES: COc1cc(N(C)C)c(N2CCC(=O)NC2=O)cc1C(C)(C)C

IC50 (Hepatitis C virus [1]): 6.4 µM
SMILES: COc1ccc(N2CCC(=O)NC2=O)cc1C(C)(C)C

IC50 (Hepatitis C virus [1]): 7.4 µM
SMILES: COc1c(Br)cc(N2CCC(=O)NC2=O)cc1C(C)(C)C

IC50 (Hepatitis C virus [1]): 6.5 µM
SMILES: COc1cc(NC(C)=O)c(N2CCC(=O)NC2=O)cc1C(C)(C)C
